Target: T1, HCV NS5B RdRp genotype 1b (Hepatitis C virus genotype 1b, UniProt Q9WMX2)
T1 construct: The protein was expressed with an 18 amino acid C-terminal truncation to enhance the solubility; made in house; host or cells: E. coli BL21 (DE3), pET21a
Test: Modified HCV NS5B RdRp enzyme assay (with preincubation)
Format: biochemical
Conditions: modified method (with preincubation)
Experimental: HCVNS5B RdRp cloning, expression, and purification. The cDNA encoding the NS5B protein of HCV, genotype 1b, was cloned into the pET21a expression vector. The protein was expressed with an 18 amino acid C-terminal truncation to enhance the solubility. The E. coli competent cell line BL21 (DE3) was used for expression of the protein. Cultures were grown at 37° C. for ˜4 hours until the cultures reached an optical density of 2.0 at 600 nm. The cultures were cooled to 20° C. and induced with 1 mM IPTG. Fresh ampicillin was added to a final concentration of 50 μg/ml and the cells were grown overnight at 20° C.
Cell pellets (3 L) were lysed for purification to yield 15-24 mgs of purified NS5B. The lysis buffer consisted of 20 mM Tris-HCl, pH 7.4, 500 mM NaCl, 0.5% triton X-100, 1 mM DTT, 1 mM EDTA, 20% glycerol, 0.5 mg/ml lysozyme, 10 mM MgCl2, 15 ug/ml deoxyribonuclease I, and Complete TM protease inhibitor tablets (Roche). After addition of the lysis buffer, frozen cell pellets were resuspended using a tissue homogenizer. To reduce the viscosity of the sample, aliquots of the lysate were sonicated on ice using a microtip attached to a Branson sonicator. The sonicated lysate was centrifuged at 100,000×g for 1 hr at 4° C. and filtered through a 0.2 μm filter unit (Corning).
The protein was purified using three sequential chromatography steps: Heparin sepharose CL-6B, polyU sepharose 4B, and Hitrap SP sepharose (Pharmacia). The chromatography buffers were identical to the lysis buffer but contained no lysozyme, deoxyribonuclease I, MgCl2 or protease inhibitor and the NaCl concentration of the buffer was adjusted according to the requirements for charging the protein onto the column. Each column was eluted with a NaCl gradient which varied in length from 5-50 column volumes depending on the column type. After the final chromatography step, the resulting purity of the enzyme is >90% based on SDS-PAGE analysis. The enzyme was aliquoted and stored at −80° C.
Standard HCV NS5B RdRp enzyme assay. HCV RdRp genotype Ib assays were run in a final volume of 60 μl in 96 well plates (Costar 3912). The assay buffer is composed of 20 mM Hepes, pH 7.5, 2.5 mM KCl, 2.5 mM MgCl2, 1 mM DTT, 1.6 U RNAse inhibitor (Promega N2515), 0.1 mg/ml BSA (Promega R3961), and 2% glycerol. All compounds were serially diluted (3-fold) in DMSO and diluted further in water such that the final concentration of DMSO in the assay was 2%. HCV RdRp genotype 1b enzyme was used at a final concentration of 28 nM. A polyA template was used at 6 nM, and a biotinylated oligo-dT12 primer was used at 180 nM final concentration. Template was obtained commercially (Amersham 27-4110). Biotinylated primer was prepared by Sigma Genosys. ^3H-UTP was used at 0.6 μCi (0.29 μM total UTP). Reactions were initiated by the addition of enzyme, incubated at 30° C. for 60 min, and stopped by adding 25 μl of 50 mM EDTA containing SPA beads (4 μg/μl, Amersham RPNQ 0007). Plates were read on a Packard Top Count NXT after >1 hr incubation at room temperature.
Modified HCV NS5B RdRp enzyme assay. A modified enzyme assay was performed essentially as described for the standard enzyme assay except for the following: The biotinylated oligo dT12 primer was precaptured on streptavidin-coated SPA beads by mixing primer and beads in assay buffer and incubating at room temperature for one hour. Unbound primer was removed after centrifugation. The primer-bound beads were resuspended in 20 mM Hepes buffer, pH 7.5 and used in the assay at final concentrations of 20 nM primer and 0.67 μg/μl beads. Order of addition in the assay: enzyme (14 nM) was added to diluted compound followed by the addition of a mixture of template (0.2 nM), ^3H-UTP (0.6 μCi, 0.29 μM), and primer-bound beads, to initiate the reaction; concentrations given are final. Reactions were allowed to proceed for 4 hours at 30° C.
The IC50 values for compounds were determined using seven different [I]. […]

T1 sequence (Q9WMX2 2420-2992): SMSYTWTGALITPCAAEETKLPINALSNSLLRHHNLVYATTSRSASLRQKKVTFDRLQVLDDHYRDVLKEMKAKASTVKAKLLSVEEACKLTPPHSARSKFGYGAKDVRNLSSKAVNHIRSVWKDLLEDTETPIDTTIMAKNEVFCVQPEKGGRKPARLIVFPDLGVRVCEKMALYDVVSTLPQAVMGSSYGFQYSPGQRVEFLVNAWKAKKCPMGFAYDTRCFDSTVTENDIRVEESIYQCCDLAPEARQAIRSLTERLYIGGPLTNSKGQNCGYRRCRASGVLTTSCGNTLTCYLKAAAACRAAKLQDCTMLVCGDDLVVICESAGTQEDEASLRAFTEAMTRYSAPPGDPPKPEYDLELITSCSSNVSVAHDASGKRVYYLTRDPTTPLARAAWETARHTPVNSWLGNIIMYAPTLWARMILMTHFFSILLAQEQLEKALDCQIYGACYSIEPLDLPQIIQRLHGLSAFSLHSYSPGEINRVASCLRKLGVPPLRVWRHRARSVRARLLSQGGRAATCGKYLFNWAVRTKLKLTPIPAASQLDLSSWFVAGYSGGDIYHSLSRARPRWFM

Row | SMILES | IC50
1 | Cn1c(C(=O)O)cc2cc(NC(=O)C3(NC(=O)c4ccc5c(C6CCCCC6)c6n(c5c4)CC(=O)Nc4ccccc4-6)CCCC3)ccc21 | 0.02 to 1 µM
2 | COC(=O)c1ccc2c(C3CCCCC3)c3n(c2c1)CC(C(=O)N1CCOCC1)=Cc1ccc(Cl)cc1-3 | > 1 µM
3 | O=C(NS(=O)(=O)C1CC1)c1ccc2c(C3CCCCC3)c3n(c2c1)CC(C(=O)N1CCOCC1)Cc1ccccc1-3 (centres unmarked) [drawing 288] | 0.02 to 1 µM
4 | O=C(NS(=O)(=O)C1CC1)c1ccc2c(C3CCCCC3)c3n(c2c1)CC(C(=O)N1CCOCC1)Cc1ccccc1-3 (centres unmarked) [drawing 289] | 0.02 to 1 µM
5 | COC(=O)c1ccc2c(C3CCCCC3)c3n(c2c1)CC(C(=O)OCc1ccccc1)=Cc1ccccc1-3 [drawing 322] | > 1 µM
6 | CS(=O)(=O)NC(=O)c1ccc2c(C3CCCCC3)c3n(c2c1)CC(C(=O)N1CCOCC1)Cc1ccccc1-3 (centres unmarked) [drawing 348] | 0.02 to 1 µM
7 | CS(=O)(=O)NC(=O)c1ccc2c(C3CCCCC3)c3n(c2c1)CC(C(=O)N1CCOCC1)Cc1ccccc1-3 (centres unmarked) [drawing 349] | 0.02 to 1 µM

Same assay, conditions: preincubation protocol

Row | IC50 | SMILES
8 | > 4 µM | COC(=O)c1ccc2c(C3CCCCC3)c3n(c2c1)C(O)c1cc(N(C)C)ccc1-3 (centres unmarked)
9 | > 12.5 µM | COC(=O)C1=Cc2occc2-c2c(C3CCCCC3)c3ccc(C(=O)OC)cc3n2C1
10 | 1 to 10 µM | COC(=O)c1ccc2c(C3CCCCC3)c3n(c2c1)CC(C(=O)O)=Cc1occc1-3
11 | 0.01 to 1 µM | COC(=O)c1ccc2c(C3CCCCC3)c3n(c2c1)CC(C(=O)NCC=O)=Cc1cc(OC)ccc1-3
12 | > 12.5 µM | COC(=O)C1=Cc2cc(N(C)C)ccc2-c2c(C3CCCCC3)c3ccc(C(=O)OC)cc3n2C1
13 | > 4 µM | COC(=O)c1ccc2c(C3CCCCC3)c3n(c2c1)CC(C(=O)N1CCOCC1)=Cc1occc1-3
14 | > 4 µM | COC(=O)c1ccc2c(C3CCCCC3)c3n(c2c1)CC(C(=O)N1C[C@@H](C)O[C@@H](C)C1)=Cc1occc1-3

System: HCV replicon
Test: HCV replicon FRET assay
Format: cell-based
Conditions: Hepatitis C virus; FRET assay; read-out: EC50
Experimental: The IC50 values for compounds were determined using seven different [I]. IC50 values were calculated from the inhibition using the formula y=A+((B−A)/(1+((C/x)^D))). FRET Assay Preparation. To perform the HCV FRET screening assay, 96-well cell culture plates were used. The FRET peptide (Anaspec, Inc.) (Taliani et al., Anal. Biochem. 240:60-67 (1996), hereby incorporated by reference in its entirety) contains a fluorescence donor, EDANS, near one end of the peptide and an acceptor, DABCYL, near the other end. The fluorescence of the peptide is quenched by […] resonance energy transfer (RET) between the donor and the acceptor, but as the NS3 protease cleaves the peptide the products are released from RET quenching and the fluorescence of the donor becomes apparent. The assay reagent was made as follows: 5× cell Luciferase cell culture lysis reagent from Promega (#E153A) diluted to 1× with dH2O, NaCl added to 150 mM final, the FRET peptide diluted to 20 uM final from a 2 mM stock.
To prepare plates, HCV replicon cells, with or without a Renilla luciferase reporter gene, were trypsinized and placed into each well of a 96-well plate with titrated test compounds added in columns 3 through 12; columns 1 and 2 contained a control compound (HCV protease inhibitor), and the bottom row contained cells without compound. The plates were then placed in a CO2 incubator at 37 degrees C.
Assays. Subsequent to addition of the test compounds described above (FRET Assay Preparation), at various times the plate was removed and Alamar blue solution (Trek Diagnostics, #00-100) was added per well as a measure of cellular toxicity. After reading in a Cytoflour 4000 instrument (PE Biosystems), plates were rinsed with PBS and then used for FRET assay by the addition of 30 ul of the FRET peptide assay reagent described above (FRET Assay Preparation) per well. The plate was then placed into the Cytoflour 4000 instrument which had been set to 340 excite/490 emission, automatic mode for 20 cycles and the plate read in a kinetic mode. Typically, the signal to noise using an endpoint analysis after the reads was at least three-fold. Alternatively, after Alamar blue reading, plates were rinsed with PBS, 50 ul of DMEM (high glucose) without phenol red was added and plates were then used for luciferase assay using the Promega Dual-Glo Luciferase Assay System.
Compound analysis was determined by quantification of the relative HCV replicon inhibition and the relative cytotoxicity values. To calculate cytoxicity values, the average Alamar Blue fluorescence signals from the control wells were set as 100% non-toxic. The individual signals in each of the compound test wells were then divided by the average control signal and multiplied by 100% to determine […]. To calculate the HCV replicon inhibition values, an average background value was obtained from the two wells containing the highest amount of HCV protease inhibitor at the end of the assay period. These numbers were similar to those obtained from naïve Huh-7 cells.
The background numbers were then subtracted from the average signal obtained from the control wells and this number was used as 100% activity. The individual signals in each of the compound test wells were then divided by the averaged control values after background subtraction and multiplied by 100% to determine percent activity. EC50 values for a protease inhibitor titration were calculated as the concentration which caused a 50% reduction in FRET or luciferase activity. The two numbers generated for the compound plate, percent cytoxicity and percent activity were used to determine compounds of interest for further analysis.

Row | SMILES | EC50
15 | O=C(O)c1ccc2c(C3CCCCC3)c3n(c2c1)C/C=C\COc1ccccc1-3 | 1 to 10 µM
16 | COC(=O)/C=C/c1ccc(NC(=O)C2(NC(=O)c3ccc4c(C5CCCCC5)c5n(c4c3)CCCn3ccnc3-5)CCCC2)cc1 | 1 to 10 µM
17 | CC(C)(C)OC(=O)N1CCCCn2c(c(C3CCCCC3)c3ccc(C(=O)NC4(C(=O)Nc5ccc(/C=C/C(=O)O)cc5)CCCC4)cc32)-c2ccccc21 | 1 to 10 µM
18 | O=C(NC1(C(=O)O)CCCC1)c1ccc2c(C3CCCCC3)c3n(c2c1)CCCCNc1ccccc1-3 | 1 to 10 µM
19 | COC(=O)/C=C/c1ccc(NC(=O)C2(NC(=O)c3ccc4c(C5CCCCC5)c5n(c4c3)CCCc3nc[nH]c3-5)CCCC2)cc1 | 1 to 10 µM
20 | O=C(O)/C=C/c1ccc(NC(=O)C2(NC(=O)c3ccc4c(C5CCCCC5)c5n(c4c3)CCCc3nc[nH]c3-5)CCCC2)cc1 | 1 to 10 µM
21 | O=C(O)c1ccc2c(C3CCCCC3)c3n(c2c1)CCCc1nc[nH]c1-3 | > 10 µM
22 | CN1C(=O)Cn2c(c(C3CCCCC3)c3ccc(C(=O)NS(=O)(=O)N(C)C)cc32)-c2ccccc21 | 0.01 to 1 µM
23 | O=C(O)c1ccc(-c2cnc(NC(=O)C3(NC(=O)c4ccc5c(C6CCCCC6)c6n(c5c4)CC=Cc4ccccc4-6)CCCC3)s2)cc1 | 0.01 to 1 µM
24 | O=C(NC1(C(=O)Nc2nccs2)CCCC1)c1ccc2c(C3CCCCC3)c3n(c2c1)CC=Cc1ccccc1-3 | 0.01 to 1 µM
25 | O=C(NC1(C(=O)O)CCNCC1)c1ccc2c(C3CCCCC3)c3n(c2c1)CC=Cc1ccccc1-3 | 1 to 10 µM
26 | O=C(O)c1ccc2c(C3CCCCC3)c3n(c2c1)CCCc1nccnc1-3 | 1 to 10 µM
27 | O=C(O)c1ccc2c(C3CCCCC3)c3n(c2c1)CCNc1ccccc1-3 | 1 to 10 µM
28 | COC(=O)/C=C/c1ccc(NC(=O)C2(NC(=O)c3ccc4c(C5CCCCC5)c5n(c4c3)CCCc3nccnc3-5)CCCC2)cc1 | 1 to 10 µM
29 | COC(=O)/C=C/c1ccc(NC(=O)C2(NC(=O)c3ccc4c(C5CCCCC5)c5n(c4c3)CC(C(=O)NCCN(C)C)=Cc3ccccc3-5)CCCC2)cc1 | 0.01 to 1 µM
30 | COC(=O)/C=C/c1ccc(NC(=O)C2(NC(=O)c3ccc4c(C5CCCCC5)c5n(c4c3)CC(=O)N(C)c3ccccc3-5)CCCC2)cc1 | 0.01 to 1 µM
31 | Cn1c(C(=O)O)cc2cc(NC(=O)C3(NC(=O)c4ccc5c(C6CCCCC6)c6n(c5c4)CC(=O)Nc4ccccc4-6)CCCC3)ccc21 | 0.01 to 1 µM
32 | CCOC(=O)/C=C/c1ccc(NC(=O)C2(NC(=O)c3ccc4c(C5CCCCC5)c5n(c4c3)CCN(C(=O)OC(C)(C)C)c3ccccc3-5)CCCC2)cc1 | 0.01 to 1 µM
33 | CCOC(=O)/C=C/c1ccc(NC(=O)C2(NC(=O)c3ccc4c(C5CCCCC5)c5n(c4c3)CCNc3ccccc3-5)CCCC2)cc1 | 0.01 to 1 µM
34 | O=C(O)c1ccc2c(C3CCCCC3)c3n(c2c1)C(=O)NCc1ccccc1-3 | > 10 µM
35 | CN1Cc2ccccc2-c2c(C3CCCCC3)c3ccc(C(=O)O)cc3n2C1=O | > 10 µM
36 | CC1=C(C(=O)N2CCOCC2)Cn2c(c(C3CCCCC3)c3ccc(C(=O)NS(=O)(=O)N(C)C)cc32)-c2ccccc21 | 0.01 to 1 µM
37 | COC(=O)c1ccc2c(C3CCCCC3)c3n(c2c1)CC(C(=O)N1C[C@@H](C)O[C@@H](C)C1)=Cc1c(OC)cccc1-3 | > 3.3 µM
38 | COc1cc2c(cn1)-c1c(C3CCCCC3)c3ccc(C(=O)O)cc3n1CC(C(=O)N1C[C@@H](C)O[C@@H](C)C1)=C2 | 1 to 10 µM

Reference: patent US7348425B2, “Inhibitors of HCV replication” (Bristol-Myers Squibb Company, priority 2004, dated 2008)
